The compounds below were run against T1, human GPR40 (Homo sapiens, UniProt O14842) (assay: Inositol Phosphate Turnover (IP1) Assay). Details: HEK cells stably expressing human GPR40; CisBio IP-One kit; 60 minutes at 37 degrees; read-out: Human IP1 EC50.
T1 construct: expressed in transfected cells
Format: cell-based
How it was run: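 HEK cells stably expressing GPR40, plated 16 h, then exposed to compound in stimulation buffer for 60 min at 37 °C. IP1 accumulation read by HTRF IP-One detection after 60 min at RT.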

T1 sequence (O14842 whole entry): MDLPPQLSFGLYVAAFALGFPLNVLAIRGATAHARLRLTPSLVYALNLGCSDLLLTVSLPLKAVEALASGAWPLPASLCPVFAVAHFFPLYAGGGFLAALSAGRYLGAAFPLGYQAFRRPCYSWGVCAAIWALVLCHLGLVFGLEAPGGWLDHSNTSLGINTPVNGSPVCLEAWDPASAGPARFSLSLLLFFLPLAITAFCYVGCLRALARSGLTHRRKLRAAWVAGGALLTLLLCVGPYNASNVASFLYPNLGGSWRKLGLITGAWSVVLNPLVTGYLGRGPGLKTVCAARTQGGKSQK

EC50 [nM] | SMILES
38.3 | C[C@H](C(=O)O)[C@H](c1ccc2c(c1)OC1(CC2)CCN(c2cccnc2C(F)(F)F)CC1)C1CC1 [Example 22, sodium (2S,3R)-3-cyclopropyl-2-methyl-3-(1′-(2-(trifluoromethyl)pyridin-3-yl)spiro[chroman-2,4′-piperidin]-7-yl)propanoate]
36.3 | CC(c1cc(C(F)(F)F)ccc1C1CC1)N1CCC2(CCc3ccc([C@H](C4CC4)[C@H](C)C(=O)O)c(F)c3O2)CC1 (single isomer, unassigned) [Example 14, sodium (2S,3R)-3-cyclo-propyl-3-(1′-((S or R)-1-(2-cyclopropyl-5-(trifluoromethyl)phenyl)-ethyl)-8-fluorospiro [chroman-2,4′-piperidin]-7-yl)-2-methylpropanoate]
2.66 | C[C@H](C(=O)O)[C@H](c1ccc2c(c1)OC1(CCCN([C@@H](C)c3cc(C(F)(F)F)ccc3C(F)(F)F)CC1)CC2)C1CC1 (single isomer, unassigned) [Example 52, (2S,3R)-3-((S or R)-1-((S)-1-(2,5-bis (trifluoromethyl)phenyl)ethyl)spiro[azepane-4,2′-chroman]-7′-yl)-3-cyclopropyl-2-methylpropanoic acid]
501 | CCc1[nH]c(C(=O)O)cc1-c1ccc(OC(F)(F)F)c(C(C)N2CCC3(CCc4ccc([C@H](C5CC5)[C@H](C)C(=O)O)cc4O3)CC2)c1 (single isomer, unassigned) [Example 120, 4-(3-((S or R)-1-(7-((1R,2S)-2-carboxy-1-cyclopropylpropyl)spiro[chro-man-2,4′-piperidin]-1′-yl)ethyl)-4-(trifluoro-methoxy)phenyl)-5-ethyl-1H-pyrrole-2-carboxylic acid]
0.527 | C[C@H](C(=O)O)[C@H](c1ccc2c(c1)OC1(CCCN([C@H](C)c3cc(C(F)(F)F)ccc3C(F)(F)F)CC1)CC2)C1CC1 (single isomer, unassigned) [Example 49, (2S,3R)-3-((R or S)-1-((R)-1-(2,5-bis (trifluoromethyl)phenyl)ethyl)spiro[azepane-4,2′-chroman]-7′-yl)-3-cyclopropyl-2-methylpropanoic acid]
22.6 | C[C@H](C(=O)O)[C@H](c1ccc2c(c1)OC1(CC2)CCN(S(=O)(=O)c2cc(Cl)ccc2Cl)CC1)C1CC1 [Example 46, (2S,3R)-3-cyclopropyl-3-(1′-((2,5-dichloro-phenyl)sulfonyl)spiro [chroman-2,4′-piperidin]-7-yl)-2-methyl-propanoic acid]
42.5 | Cc1ccc(-c2ccc(OC(F)(F)F)c(C(C)N3CCC4(CCc5ccc([C@H](C6CC6)[C@H](C)C(=O)O)cc5O4)CC3)c2)o1 (mixture of isomers) [Example 122, (2S,3R)-3-cyclopropyl-2-methyl-3-(1′-((RS)-1-(5-(5-methylfuran-2-yl)-2-(trifluoromethoxy)phenyl)eth-yl)spiro[chroman-2,4′-piperidin]-7-yl)propanoic acid]
2.14 | CC[C@@H](c1cc(C(F)(F)F)ccc1C(F)(F)F)N1CCC2(CCc3ccc([C@H](C4CC4)[C@H](C)C(=O)O)cc3O2)CC1 [Example 7, sodium (2S,3R)-3-(1′-((S)-1-(2,5-bis(trifluoro-methyl)phenyl)propyl)-spiro[chroman-2,4′-piperidin]-7-yl)-3-cyclo-propyl-2-methyl-propanoic acid]
13.1 | C[C@H](C(=O)O)[C@H](c1ccc2c(c1)OC1(CC2)CC(N(C)c2ncccc2C(F)(F)F)C1)C1CC1 (stereo partly drawn) [Example 89, (2S,3R)-3-cyclopropyl-2-methyl-3-(3′-(methyl(3-(trifluoromethyl)pyridin-2-yl)amino)spiro[chroman-2,1′-cyclobutan]-7-yl)propanoic Acid]
1.12 | C[C@H](C(=O)O)[C@H](c1ccc2c(c1)OC1(CC2)CCC(Nc2cc(C(F)(F)F)ccc2C(F)(F)F)CC1)C1CC1 (single isomer, unassigned) [Example 67]
15 | Cc1cscc1-c1ccc(OC(F)(F)F)c(C(C)N2CCC3(CCc4ccc([C@H](C5CC5)[C@H](C)C(=O)O)cc4O3)CC2)c1 (stereo partly drawn) [Example 119]
18.3 | C[C@H](C(=O)O)[C@H](c1ccc2c(c1)OC1(CC2)CCN(S(=O)(=O)c2cc(C(F)(F)F)ccc2Cl)CC1)C1CC1 [Example 25, (2S,3R)-3-(1′-((2-chloro-5-(trifluoromethyl)phenyl)sulfonyl)spiro[chroman-2,4′-piperidin]-7-yl)-3-cyclopropyl-2-methylpropanoic Acid]
1.62 | CC(c1cc(C(F)(F)F)ccc1C(F)(F)F)N(C)C1CC2(CCc3ccc([C@H](C4CC4)[C@H](C)C(=O)O)cc3O2)C1 (stereo partly drawn) [Example 99, (2S,3R)-3-(3′-((1-(2,5-bis(trifluoromethyl)phenyl)ethyl)(methyl)amino)spiro[chroman-2,1′-cyclobutan]-7-yl)-3-cyclopropyl-2-methylpropanoic Acid]
2.29 | CC(c1cc(-c2ccoc2)ccc1OC(F)(F)F)N1CCC2(CCc3ccc([C@H](C4CC4)[C@H](C)C(=O)O)cc3O2)CC1 (single isomer, unassigned) [Example 118, (2S,3R)-3-cyclopropyl-3-(1′-((S or R)-1-(5-(furan-3-yl)-2-(trifluoromethoxy)phenyl)ethyl)spiro[chroman-2,4′-piperidin]-7-yl)-2-methylpropanoic acid]
323 | Cc1nocc1-c1ccc(OC(F)(F)F)c(C(C)N2CCC3(CCc4ccc([C@H](C5CC5)[C@H](C)C(=O)O)cc4O3)CC2)c1 (single isomer, unassigned) [Example 116, (2S,3R)-3-cyclopropyl-2-methyl-3-(1′-((R or S)-1-(5-(3-methylisoxazol-4-yl)-2-(trifluoromethoxy)phenyl)eth-yl)spiro[chroman-2,4′-piperidin]-7-yl)propanoic acid]

Reference: US10968232B2 (Merck Sharp & Dohme Corp., priority 2016, dated 2021)
